Inconclusive results are not listed. Active and inactive are the calls of the source.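 Rule for the calls: active = compound lowering the normal-ribosome reporter at least twice as much as the humanized-ribosome reporter, growth loss under a set limit; inconclusive = no clear call, values can overlap the other calls; inactive = the rest.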
Test system: E. coli WT GFP strain growth, fluorescence, 24 h
Assay: E. coli growth inhibition, wild-type GFP versus h24 humanized RFP strain, dose response, h24 mutant RFP vs wild-type GFP, cherry-pick (AID 977628)

Compound	AC50
COC(=O)c1cc(C(=O)c2c(C)cc3ccccn23)cc([N+](=O)[O-])c1	> 100 µM (inactive)
Cc1sc(NC(=O)CN2CCOCC2)nc1-c1ccc2c(c1)CCN2S(=O)(=O)c1ccccc1	> 100 µM (inactive)
COc1cc2nc(Nc3ccc(F)cc3)nc(N)c2cc1OC	> 100 µM (inactive)
Nc1nc(Nc2ccccc2F)nc(N2CCOCC2)c1[N+](=O)[O-]	> 100 µM (inactive)
CCN(c1cccc2ccccc12)S(=O)(=O)c1ccc(Cl)nc1	> 100 µM (inactive)
Nc1nc(=S)ss1	> 100 µM (inactive)
O=C(NCc1cccnc1)c1ccc(COc2ccc3c(c2)CCC3)o1	> 100 µM (inactive)
Cc1cc2nc(SCC(=O)O)nc(C)c2cc1C	> 100 µM (inactive)
O=C(Cc1cccc(NC(=O)C2CCN(C(=O)C3CCCCC3)CC2)c1)Nc1cccc(C(=O)N2CCCC2)c1	> 100 µM (inactive)
CCN(C(=O)COC(=O)c1ccc([N+](=O)[O-])o1)c1cccc2ccccc12	> 100 µM (inactive)
CC1(C(=O)NS(=O)(=O)c2cccs2)CCN1C(=O)C1(c2ccc(Cl)cc2)CCC1 (stereo not drawn)	> 100 µM (inactive)
COc1ccc(C(=O)C2CCCN(C(=O)c3noc4c3CCCC4)C2)cc1F (stereo not drawn)	> 100 µM (inactive)
O=C(CSc1ccccc1)Nc1cccc(NC(=O)c2ccco2)c1	> 100 µM (inactive)
COc1cc(O)c2c(c1)/C=C/C[C@H](O)[C@H](O)C(=O)CCC[C@H](C)OC2=O	> 100 µM (inactive)
Cc1cc(Br)ccc1NC(=O)c1ccco1	> 100 µM (inactive)
COc1ccc(NC(=O)CN(C)C(=O)c2cc(C3CC3)nn2-c2ccccc2)cc1	> 100 µM (inactive)
CN(C)CCN(C(=O)c1ccc2c(c1)CCCC2)c1nc2c(F)cccc2s1	> 100 µM (inactive)
Cc1cc(C(=O)NCCC2=CCCCC2)ccc1[N+](=O)[O-]	> 100 µM (inactive)
Cc1nn(C(C)(C)C)c(OC(=O)CC(C)C)c1S(=O)(=O)c1ccccc1	> 100 µM (inactive)
O=c1[nH]c(C2CCN(S(=O)(=O)c3ccc4c(c3)OCCO4)CC2)nc2c1nnn2Cc1ccccc1F	> 100 µM (inactive)
C[C@@H]1CCCCO[C@@H](CN(C)C(=O)c2ccccc2)[C@H](C)CN([C@@H](C)CO)C(=O)c2cc(NC(=O)c3ccccc3)ccc2O1	> 100 µM (inactive)
CCn1nc(Cc2cccc3ccccc23)c(C#N)c1N	> 100 µM (inactive)
CC(NCc1ccc(S(N)(=O)=O)cc1)C(=O)Nc1cc([N+](=O)[O-])ccc1Cl (stereo not drawn)	> 100 µM (inactive)
O=C(O)CC1(CC(=O)NCc2ccc(-c3cccs3)cc2)CCCCC1	> 100 µM (inactive)

Compound	AC50
COc1ccc(C(=O)N(c2ccccc2)c2nccc3ccccc23)cc1OC	> 100 µM (inactive)
Cc1ccccc1-n1nnnc1SCCCC(=O)c1ccc(F)cc1	> 100 µM (inactive)
O=C(CN1CCC(n2nnc3cc(F)ccc32)CC1)N1CCc2ccccc2C1	> 100 µM (inactive)
O=C1NC(CCc2ccccc2)C(=O)N1Cc1cccc2ccccc12 (stereo not drawn)	> 100 µM (inactive)
COc1ccc(OCC2c3cc(OC)c(OC)cc3CCN2C(=O)C(C)C)cc1 (stereo not drawn)	> 100 µM (inactive)
CCOC(=O)c1csc(NC(=O)CC2CCCC2)n1	> 100 µM (inactive)
CCc1ccc(OCC(=O)NCc2ccco2)c(Br)c1	> 100 µM (inactive)
COc1ccc2[nH]cc(CCNC(=O)C3CC(=O)N(c4ccc(Cl)cc4)C3)c2c1 (stereo not drawn)	> 100 µM (inactive)
CC(C(=O)Nc1nc2ccccc2s1)n1cc([N+](=O)[O-])cn1 (stereo not drawn)	> 100 µM (inactive)
CC1CCCN(c2ccc(C(=O)NCCc3ccccc3)cn2)C1 (stereo not drawn)	> 100 µM (inactive)
Cc1ccc(S(=O)(=O)N2CC(=O)Nc3ccccc32)cc1C	> 100 µM (inactive)
COc1cc(SC)ccc1C(=O)N1CCN(c2ccccc2F)CC1	> 100 µM (inactive)
Cc1ccoc1C(=O)Nc1ccc2ccccc2c1	> 100 µM (inactive)
N#Cc1ccc(OCC(=O)N2CCN(S(=O)(=O)c3ccc(Cl)s3)CC2)cc1	> 100 µM (inactive)
O=C(Cn1cnc2ccccc21)c1ccc(Br)cc1	> 100 µM (inactive)
COc1ccc(Cn2c(=O)c3[nH]cnc3n(-c3ccc(C)cc3)c2=O)cc1	> 100 µM (inactive)
COc1ccccc1-c1cc2nc(NCCc3ccncc3)ccn2n1	> 100 µM (inactive)
COc1cc(OC)cc(C(=O)N[C@H](C(=O)OCC(=O)Nc2ccc(F)c(F)c2F)C(C)C)c1	> 100 µM (inactive)
Cc1cccc(NC(=O)CC23CC4CC(C2)CC(n2nnc(C)n2)(C4)C3)c1	> 100 µM (inactive)
O=C(NCc1ccccc1Cl)[C@H]1CCCN1C(=O)[C@H]1CCCN1C(=O)c1cccc2ccccc12	> 100 µM (inactive)
O=C(c1ccc(Cl)cc1)N1CCN(c2cccc3[nH]ccc23)CC1	> 100 µM (inactive)
COc1ccc(C)cc1-n1c(=O)c2ccccc2c2ccccc2c1=O	> 100 µM (inactive)
COc1ccccc1CN1Cc2ccccc2Oc2ccccc2S1(=O)=O	> 100 µM (inactive)
O=C(c1cc(COc2ccc(F)cc2F)on1)N1CCCC(c2ccccc2)C1 (stereo not drawn)	> 100 µM (inactive)
